Measured values as given in patent US20050004038A1, “Bivalent inhibitors of Glutathione-S-Transferases” (priority 2003, published 2005).
Several values for one entry are separate records, joined by “and”; a condition that tells them apart may be missing. Equal values may be shown once.

How the values were obtained:
[1] = target: T1, human glutathione S-transferase A1-1 (GSTA1-1) (Homo sapiens, UniProt P08263); assay: CDNB assay of GST activity and inhibition, GST A1-1; assay type: biochemical; details: second value of the cell GSTP1-1/GSTA1-1, 20 nM GST
T1 construct: made in house; host or cells: E. coli
T1 sequence (P08263 1-222): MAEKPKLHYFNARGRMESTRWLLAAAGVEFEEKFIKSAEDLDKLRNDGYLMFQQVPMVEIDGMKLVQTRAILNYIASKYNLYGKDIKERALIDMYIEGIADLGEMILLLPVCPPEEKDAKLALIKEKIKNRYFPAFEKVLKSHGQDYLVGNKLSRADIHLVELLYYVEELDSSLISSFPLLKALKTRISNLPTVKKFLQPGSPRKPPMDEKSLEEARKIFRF
Protocol: (§1) GST isozymes. […] The enzyme was incubated with 10 mM dithiothreitol to ensure complete reduction of cysteine residues, followed by extensive dialysis to remove the reducing agent. […] Plasmodium GST (pGST) was a gift from Dr. Katja Becker (Justus Liebig University of Giessen), and murine GSTP and GSTA were gifts from Dr. Dave Eaton (University of Washington). Except where otherwise stated (i.e. testing of pGST in Example 6.4.5 and testing of murine GSTs in Example 6.4.7), GST isozymes tested were from human.
(§2) GST assays. Assays of GST activity and inhibition were performed with chloro-2,4-dinitrobenzene (CDNB) as the electrophilic substrate. Except where otherwise stated, GST concentration was 20 nM. […] Rates were determined by measuring absorption at 340 nm (λmax of glutathione-dinitrobenzene) for 1 minute on a Beckman DU 7400 spectrophotometer. For IC50 determinations, assays were performed at inhibitor concentrations ranging over at least […] (from 100-fold above the IC50 to 100-fold below). Data were fit to a sigmoidal dose-response function using GraphPad Prism to determine the 50% inhibitory concentration.

[2] = target: T2, human glutathione S-transferase P1-1 (GSTP1-1) (Homo sapiens, UniProt P09211); assay: CDNB assay of GST activity and inhibition, GST P1-1; assay type: biochemical; details: for IC50: first value of the cell GSTP1-1/GSTA1-1, CDNB assay, 20 nM GST; for fold greater affinity for GSTP1-1 (lower IC50) than the ligand domain alone: versus corresponding ligand domain (GS-NB/IId, IIg, IIId, IVk)
T2 construct: made in house; host or cells: E. coli
Protocol: as §1, §2

T2 sequence (P09211 2-210 limits assumed): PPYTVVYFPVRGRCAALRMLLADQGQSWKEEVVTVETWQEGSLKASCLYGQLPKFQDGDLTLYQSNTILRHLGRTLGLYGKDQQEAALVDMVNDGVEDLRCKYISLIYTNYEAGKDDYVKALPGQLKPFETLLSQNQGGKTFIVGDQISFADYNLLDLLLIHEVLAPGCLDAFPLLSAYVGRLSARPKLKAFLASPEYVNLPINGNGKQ

IC50 [1]	IC50 [2]	fold greater affinity for GSTP1-1 (lower IC50) than the ligand domain alone [2]	fold lower IC50 for GSTP1-1 than the monovalent inhibitor ([2]; versus IVj)	Structure (SMILES)	isozyme specificity GSTP1-1 versus GSTA1-1 ([2]; in words)
> 100 µM	0.044 µM			Nc1c(S(=O)(=O)O)cc(Nc2cccc(S(=O)(=O)CCNCCOCCOCCNCCS(=O)(=O)c3cccc(Nc4cc(S(=O)(=O)O)c(N)c5c4C(=O)c4ccccc4C5=O)c3)c2)c2c1C(=O)c1ccccc1C2=O [IIIa]	
> 100 µM	0.44 µM			Nc1c(S(=O)(=O)O)cc(Nc2cccc(S(=O)(=O)CCNCCCNC(=O)c3cccc(C(=O)NCCCNCCS(=O)(=O)c4cccc(Nc5cc(S(=O)(=O)O)c(N)c6c5C(=O)c5ccccc5C6=O)c4)c3)c2)c2c1C(=O)c1ccccc1C2=O [IIIc]	
> 10 µM	0.557 µM			NC(=O)c1cc(CNCCS(=O)(=O)c2cccc(Nc3cc(S(=O)(=O)O)c(N)c4c3C(=O)c3ccccc3C4=O)c2)cc(CNCCS(=O)(=O)c2cccc(Nc3cc(S(=O)(=O)O)c(N)c4c3C(=O)c3ccccc3C4=O)c2)c1 [IIIe]	
> 1 µM	0.437 µM			NC(=O)c1cc(CNC(=O)CNCCS(=O)(=O)c2cccc(Nc3cc(S(=O)(=O)O)c(N)c4c3C(=O)c3ccccc3C4=O)c2)cc(CNC(=O)CNCCS(=O)(=O)c2cccc(Nc3cc(S(=O)(=O)O)c(N)c4c3C(=O)c3ccccc3C4=O)c2)c1 [IIIf]	
> 1 µM	~0.022 µM and 0.022 µM	approximately 220 fold		NC(=O)c1cc(CNC(=O)CCCNCCS(=O)(=O)c2cccc(Nc3cc(S(=O)(=O)O)c(N)c4c3C(=O)c3ccccc3C4=O)c2)cc(CNC(=O)CCCNCCS(=O)(=O)c2cccc(Nc3cc(S(=O)(=O)O)c(N)c4c3C(=O)c3ccccc3C4=O)c2)c1 [IIIh]	
> 1 µM	0.203 µM			NC(=O)c1cc(CNC(=O)CCCCCNCCS(=O)(=O)c2cccc(Nc3cc(S(=O)(=O)O)c(N)c4c3C(=O)c3ccccc3C4=O)c2)cc(CNC(=O)CCCCCNCCS(=O)(=O)c2cccc(Nc3cc(S(=O)(=O)O)c(N)c4c3C(=O)c3ccccc3C4=O)c2)c1 [IIIi]	
> 0.22 µM	0.267 µM			NC(=O)c1cc(CNC(=O)CCCCCCCNCCS(=O)(=O)c2cccc(Nc3cc(S(=O)(=O)O)c(N)c4c3C(=O)c3ccccc3C4=O)c2)cc(CNC(=O)CCCCCCCNCCS(=O)(=O)c2cccc(Nc3cc(S(=O)(=O)O)c(N)c4c3C(=O)c3ccccc3C4=O)c2)c1 [IIIj]	
> 20 µM	0.854 µM	approximately 6 fold		NC(=O)c1cccc(CNC(=O)CCCNCCS(=O)(=O)c2cccc(Nc3cc(S(=O)(=O)O)c(N)c4c3C(=O)c3ccccc3C4=O)c2)c1 [IIIl*, reference compound]	
29 µM	4.5 µM			NC(CCC(=O)NC(CSc1ccc(C(=O)OCCOCCOCCOCCOC(=O)c2ccc(SCC(NC(=O)CCC(N)C(=O)O)C(=O)NCC(=O)O)c([N+](=O)[O-])c2)cc1[N+](=O)[O-])C(=O)NCC(=O)O)C(=O)O (stereo not shown) [IIa]	
1.6 µM	2.9 µM			NC(CCC(=O)NC(CSc1ccc(C(=O)OCCOC(=O)c2cccc(C(=O)OCCOC(=O)c3ccc(SCC(NC(=O)CCC(N)C(=O)O)C(=O)NCC(=O)O)c([N+](=O)[O-])c3)c2)cc1[N+](=O)[O-])C(=O)NCC(=O)O)C(=O)O (stereo not shown) [IIb]	
3.3 µM	0.28 µM			NC(CCC(=O)NC(CSc1ccc(C(=O)OCCCOC(=O)c2cccc(C(=O)OCCCOC(=O)c3ccc(SCC(NC(=O)CCC(N)C(=O)O)C(=O)NCC(=O)O)c([N+](=O)[O-])c3)c2)cc1[N+](=O)[O-])C(=O)NCC(=O)O)C(=O)O (stereo not shown) [IIc]	
5.83 µM	1.5 µM			CCC(CSCC(NC(=O)CCC(N)C(=O)O)C(=O)NCC(=O)O)C(=O)c1ccc(OCC(=O)NCCCC(=O)NCc2cccc(C(N)=O)c2)c(Cl)c1Cl (stereo not shown) [IIf*, reference compound]	
0.741 µM	> 10 µM			C=C(CC)C(=O)c1ccc(OCC(=O)Nc2cccc(NC(=O)COc3ccc(C(=O)C(=C)CC)c(Cl)c3Cl)c2)c(Cl)c1Cl [IVa, Bis-1,3-ethacrynyl-phenylenediamine]	
1.31 µM	> 10 µM			C=C(CC)C(=O)c1ccc(OCC(=O)Nc2ccc(NC(=O)COc3ccc(C(=O)C(=C)CC)c(Cl)c3Cl)cc2)c(Cl)c1Cl [IVb, Bis-1,4-ethacrynyl-phenylenediamine]	
0.0297 µM	0.992 µM			C=C(CC)C(=O)c1ccc(OCC(=O)NCc2cc(CNC(=O)COc3ccc(C(=O)C(=C)CC)c(Cl)c3Cl)cc(C(N)=O)c2)c(Cl)c1Cl [IVc]	
0.023 µM	0.634 µM			C=C(CC)C(=O)c1ccc(OCC(=O)NCC(=O)NCc2cc(CNC(=O)CNC(=O)COc3ccc(C(=O)C(=C)CC)c(Cl)c3Cl)cc(C(N)=O)c2)c(Cl)c1Cl [IVd]	
0.012 µM and 0.0123 µM	1.2 µM			C=C(CC)C(=O)c1ccc(OCC(=O)NCCC(=O)NCc2cc(CNC(=O)CCNC(=O)COc3ccc(C(=O)C(=C)CC)c(Cl)c3Cl)cc(C(N)=O)c2)c(Cl)c1Cl [IVe]	
0.014 µM	0.589 µM			C=C(CC)C(=O)c1ccc(OCC(=O)NCCCC(=O)NCc2cc(CNC(=O)CCCNC(=O)COc3ccc(C(=O)C(=C)CC)c(Cl)c3Cl)cc(C(N)=O)c2)c(Cl)c1Cl [IVf]	
0.054 µM	0.031 µM	approximately 129 fold	403 fold	C=C(CC)C(=O)c1ccc(OCC(=O)NCCCCCCCC(=O)NCc2cc(CNC(=O)CCCCCCCNC(=O)COc3ccc(C(=O)C(=C)CC)c(Cl)c3Cl)cc(C(N)=O)c2)c(Cl)c1Cl [IVh]	
0.2 µM	0.36 µM			NC(CCC(=O)NC(CSCCCCCCCCOC(=O)CCCCCCCSCC(NC(=O)CCC(N)C(=O)O)C(=O)NCC(=O)O)C(=O)NCC(=O)O)C(=O)O (stereo not shown) [Ia]	
0.34 µM	0.3 µM			NC(CCC(=O)NC(CSCCCCCCCCCOC(=O)CCCCCCCSCC(NC(=O)CCC(N)C(=O)O)C(=O)NCC(=O)O)C(=O)NCC(=O)O)C(=O)O (stereo not shown) [Ib]	
0.16 µM	0.08 µM			NC(CCC(=O)NC(CSCCCCCCCCCCOC(=O)CCCCCCCSCC(NC(=O)CCC(N)C(=O)O)C(=O)NCC(=O)O)C(=O)NCC(=O)O)C(=O)O (stereo not shown) [Ic]	
0.11 µM	0.2 µM			NC(CCC(=O)NC(CSCCCCCCCCCCCOC(=O)CCCCCCCSCC(NC(=O)CCC(N)C(=O)O)C(=O)NCC(=O)O)C(=O)NCC(=O)O)C(=O)O (stereo not shown) [Id]	
0.14 µM	0.19 µM			NC(CCC(=O)NC(CSCCCCCCCCCCCCOC(=O)CCCCCCCSCC(NC(=O)CCC(N)C(=O)O)C(=O)NCC(=O)O)C(=O)NCC(=O)O)C(=O)O (stereo not shown) [Ie]	
3.8 µM	3.8 µM			COC(=O)CCCCCCCSCC(NC(=O)CCC(N)C(=O)O)C(=O)NCC(=O)O (stereo not shown) [If*, reference compound]	
> 10 µM	24.8 µM			NC(=O)c1cc(CNC(=O)CCCNC(=O)CSCC(NC(=O)CCC(N)C(=O)O)C(=O)NCC(=O)O)cc(CNC(=O)CCCNC(=O)CSCC(NC(=O)CCC(N)C(=O)O)C(=O)NCC(=O)O)c1 (stereo not shown) [Ig]	
> 10 µM	39.3 µM			NC(=O)c1cccc(CNC(=O)CCCC(=O)NCSCC(NC(=O)CCC(N)C(=O)O)C(=O)NCC(=O)O)c1 (stereo not shown) [Ih*, reference compound]	

Structure (SMILES)	IC50 [1]	IC50 [2]	fold greater affinity for GSTP1-1 (lower IC50) than the ligand domain alone [2]	fold lower IC50 for GSTP1-1 than the monovalent inhibitor ([2]; versus IVj)	isozyme specificity GSTP1-1 versus GSTA1-1 ([2]; in words)
Nc1c(S(=O)(=O)O)cc(Nc2cccc(S(=O)(=O)CCNCCOCCOCCOCCNCCS(=O)(=O)c3cccc(Nc4cc(S(=O)(=O)O)c(N)c5c4C(=O)c4ccccc4C5=O)c3)c2)c2c1C(=O)c1ccccc1C2=O [IIIb]	> 100 µM	0.072 µM			
CCNCCS(=O)(=O)c1cccc(Nc2cc(S(=O)(=O)O)c(N)c3c2C(=O)c2ccccc2C3=O)c1 [IIId*, reference compound]	> 100 µM	5 µM			
NC(=O)c1cc(CNC(=O)CCNCCS(=O)(=O)c2cccc(Nc3cc(S(=O)(=O)O)c(N)c4c3C(=O)c3ccccc3C4=O)c2)cc(CNC(=O)CCNCCS(=O)(=O)c2cccc(Nc3cc(S(=O)(=O)O)c(N)c4c3C(=O)c3ccccc3C4=O)c2)c1 [IIIg]	2.5 µM	0.162 µM			
CCOC(=O)c1ccc(SCC(NC(=O)CCC(N)C(=O)O)C(=O)NCC(=O)O)c([N+](=O)[O-])c1 (stereo not shown) [IId*, reference compound]	30 µM	21 µM			no substantial isozyme specificity
CCC(CSCC(NC(=O)CCC(N)C(=O)O)C(=O)NCC(=O)O)C(=O)c1ccc(OCC(=O)NCCCC(=O)NCc2cc(CNC(=O)CCCNC(=O)COc3ccc(C(=O)C(CC)CSCC(NC(=O)CCC(N)C(=O)O)C(=O)NCC(=O)O)c(Cl)c3Cl)cc(C(N)=O)c2)c(Cl)c1Cl (stereo not shown) [IIe]	0.0038 µM	0.353 µM	30 fold		
